According to US9550811B2, “Peptide scaffold design” (BIONOR IMMUNO AS, priority 2010, dated 2017):
Values joined by “and” are separate entries in the source; they are usually repeats but may differ in a detail not shown here. Identical values can stand only once. Like-named read-outs stand apart in the source and are kept apart here.

Assays:
human PBMCs [1] = assay: Extracellular staining for biotinylated peptides (flow cytometry); format: cell-based
Description: (§1) 96-well U-bottom polystyrene plates (NUNC, cat no: 163320) were used for staining of human PBMCs. Briefly, 8 ul of N- or C-terminally biotinylated peptides according to table 1 or table 2 (i.e. 5 mM, 2.5 mM & 1.25 mM tested for each peptide; all peptides manufactured by Schafer) were incubated at 37° C. for 2 h with 40 ul of PBMC (12.5×10^6 cells/ml) from blood donors. Cells were then washed 3× with 150 ul of Cellwash (BD, cat no: 349524), then stained with Streptavidin-APC (BD, cat no: 554067) & Anti-hCD11c (eBioscience, cat no: 12-0116) according to manufacturer at 4° C. for 30 min aiming to visualize biotinylated peptides & dendritic cells, respectively. Cells were then washed 3× with 150 ul of Cellwash (BD, cat no: 349524), followed by resuspension in staining buffer (BD, cat no: 554656) before flow cytometry. Dendritic cells were gated as CD11c+ events outside lymphocyte region (i.e. higher FSC & SSC signals than lymphocytes). 200 000 total cells were acquired on a FACSCanto II flow cytometer with HTS loader, and histograms for both total cells & dendritic cells with respect to peptide-fluorescence (i.e. GeoMean) were prepared.

human PBMCs [2] = format: cell-based
[3] = test system: PBMC samples from HCV patients; assay: Human IFN-gamma cytotoxic T-cell (CTL) response by ELISPOT assay; format: cell-based
Description: Human IFN-Gamma Cytotoxic T-Cell (CTL) Response by ELISPOT Assay
Briefly, at day 1, PBMC samples from HCV patients were incubated in flasks (430 000 PBMCs/cm2) for 2 h at 37° C., 5% CO2 in covering amount of culture media (RPMI 1640 Fisher Scientific; Cat No. PAAE15-039 supplemented with L-Glutamine, (MedProbe Cat. No. 13E17-605E, 10% Foetal Bovine serum (FBS), Fisher Scientific Cat. No. A15-101) and Penicillin/Streptomycin, (Fisher Acientific Cat. No. P11-010) in order to allow adherence of monocytes. Non-adherent cells were isolated, washed, and frozen in 10% V/V DMSO in FBS until further usage. Adherent cells were carefully washed with culture media, followed by incubation at 37° C. until day 3 in culture media containing 2 μg/ml final concentration of hrGM-CSF (Xiamen amoytop biotech co, cat no: 3004.9090.90) & 1 μg/ml hrIL-4 (Invitrogen, Cat no: PHC0043), and this procedure was then repeated at day 6. At day 7, cultured dendritic cells (5 000-10 000 per well) were added to ELISPOT (Millipore multiscreen HTS) plates coated with 0.5 μg/well anti-human γ Interferon together with thawed autologous non-adherent cells (200 000 per well), antigen samples (1-8 ug/ml final concentration for peptide antigens; 5 ug/ml final concentration for Concanavalin A (Sigma, Cat no: C7275) or PHA (Sigma, Cat no: L2769)) & anti-Anergy antibodies (0.03-0.05 ug/ml final concentration for both anti-PD-1 (eBioscience, cat no: 16-9989-82) & anti-PD-L1 (eBioscience, cat no: 16-5983-82)). Plates were incubated overnight and spots were developed according to manufacturer. Spots were read on ELISPOT reader (CTL-ImmunoSpot® S5 UV Analyzer).

DC-cells = assay: Cell penetration assay: staining for biotinylated peptides, dendritic cells gated as CD11c+; format: cell-based, human; settings: low concentration of peptides (208 uM)
Description: A set of peptides were biotinylated on N-terminal, and different combinations of aminoacids, with respect to length and type, were added to the sequence box X^1, X^3 and X^4 in the peptides as illustrated by the diagram below. The peptides were tested on cells grown from one individual blood donor.
as §1, with “for each peptide) were incubated” for “for each peptide; all peptides manufactured by Schafer) were incubated”, “no: 349524), followed by resuspension of each cell pellet with 100 ul of Trypsin-EDTA (Sigma, cat no: T4424), then incubated at 37° C. for 5 min. Trypsinated cells were then washed 3× with 150 ul of Cellwash (BD, cat no: 349524), followed by resuspension with BD Cytofix/Cytoperm™ plus (BD, cat no: 554715), then incubated at 4° C. for 20 min according to manufacturer. Cells were then washed 2× with 150 ul PermWash (BD, cat no: 554715). Cells were then stained” for “no: 349524), then stained”, “150 ul PermWash, followed by” for “150 ul of Cellwash (BD, cat no: 349524), followed by”
As shown in table 4 the peptides according to the invention had the ability to allocate through the cell membrane.

HLA-A1 = assay: REVEAL binding assay; settings: score as percentage of the signal generated by the positive control peptide
Description: Binding properties to HLA for the ninemers listed in table 6 were tested for the following HLA-classes:
(§3) HLA-A1, HLA-A2, HLA-A3, HLA-A11, HLA-A24, HLA-A29, HLA-B7, HLA-B8, HLA-B14, HLA-B15, HLA-B27, HLA-B35, HLA-B40.
(§4) The REVEAL™ binding assay determined the ability of each candidate peptide to bind to one or more MHC class I alleles and stabilizing the MHC-peptide complex. […] Detection is based on the presence or absence of the native conformation of the MHC-peptide complex. Each peptide is given a score relative to the positive control peptide, which is a known T cell epitope.

HLA-A29 = assay: REVEAL binding assay; settings: score as percentage of the signal generated by the positive control peptide
HLA-B15 = assay: REVEAL binding assay; settings: score as percentage of the signal generated by the positive control peptide
Description: as §3, §4

HLA-B35 = assay: REVEAL binding assay; settings: score as percentage of the signal generated by the positive control peptide
HLA-A2 = HLA-A2 (Homo sapiens, UniProt P04439, D140Y/D185E/D98H/E176V/E277Q/G131W/G231S/I119V/I121R/I166T/I218V/N151K/N90K/P208A/P217A/Q86G/Q94H/R138H/R169H); assay: REVEAL binding assay; settings: score as percentage of the signal generated by the positive control peptide
Outline: (§2)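 Synthetic nonamer peptides were tested for their ability to bind and stabilize MHC class I–peptide complexes, detected by the native conformation of the complex. Each peptide is scored relative to a positive-control known T-cell epitope.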

HLA-B7 = HLA-B7 (Homo sapiens, UniProt P01889); assay: REVEAL binding assay; settings: score as percentage of the signal generated by the positive control peptide
Sequence of HLA-B7 (P61769 21-119): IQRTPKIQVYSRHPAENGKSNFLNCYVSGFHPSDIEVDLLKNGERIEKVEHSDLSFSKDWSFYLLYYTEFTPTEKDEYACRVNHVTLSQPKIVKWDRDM
Sequence of HLA-B7 (P01889 25-299): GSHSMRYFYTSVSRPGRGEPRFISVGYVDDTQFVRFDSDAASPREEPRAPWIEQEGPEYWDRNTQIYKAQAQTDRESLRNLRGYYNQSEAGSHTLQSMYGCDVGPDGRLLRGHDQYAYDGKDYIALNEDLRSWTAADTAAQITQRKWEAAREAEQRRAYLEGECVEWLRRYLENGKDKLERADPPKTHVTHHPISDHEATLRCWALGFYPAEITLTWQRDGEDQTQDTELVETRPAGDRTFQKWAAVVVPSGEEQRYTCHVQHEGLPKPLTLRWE
Outline: as §2

HLA-A3 = HLA-A3 (Homo sapiens, UniProt P04439); assay: REVEAL binding assay; settings: score as percentage of the signal generated by the positive control peptide
Sequence of HLA-A3 (P04439 25-299): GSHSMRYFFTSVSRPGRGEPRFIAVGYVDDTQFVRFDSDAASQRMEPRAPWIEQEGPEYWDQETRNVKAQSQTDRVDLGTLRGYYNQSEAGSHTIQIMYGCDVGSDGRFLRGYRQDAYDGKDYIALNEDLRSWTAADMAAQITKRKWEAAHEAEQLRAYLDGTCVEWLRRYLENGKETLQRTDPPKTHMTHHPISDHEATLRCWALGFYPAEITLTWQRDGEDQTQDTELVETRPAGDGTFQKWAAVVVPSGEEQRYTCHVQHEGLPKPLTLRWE
Sequence of HLA-A3 (P61769 21-119, further chain): as the sequence (P61769 21-119) above
Outline: as §2

HLA-B27 = HLA-B27 (Homo sapiens, UniProt P01889, D138H/D201E/E176V/E204Q/G107R/H137Y/K202T/N104T/N87E/Q56L/Q94K/R106L/R155S/R180L/S101D/S121N/S48T/Y140D/Y33H/Y91C); assay: REVEAL binding assay; settings: score as percentage of the signal generated by the positive control peptide
Outline: as §2

HLA-A11 = HLA-A11 (Homo sapiens, UniProt P04439, A114D/F33Y/S129P); assay: REVEAL binding assay; settings: score as percentage of the signal generated by the positive control peptide
Outline: as §2

HLA-B14 = assay: REVEAL binding assay; settings: score as percentage of the signal generated by the positive control peptide
Description: as §3, §4

HLA-A24 = assay: REVEAL binding assay; settings: score as percentage of the signal generated by the positive control peptide
HLA-B40 = assay: REVEAL binding assay; settings: score as percentage of the signal generated by the positive control peptide
Outline: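 Read-out: presence or absence of natively folded MHC–peptide complex. Values expressed as % of positive-control epitope signal per allele, plus putative pass/fail; weaker-binding intermediate control included.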

HLA-B8 = assay: REVEAL binding assay; settings: score as percentage of the signal generated by the positive control peptide
[4] = Example 4, negative control = 1.00

## EEGYIPLVGAPLGEEVARALAHGVRV [compound 10, HCV (Not scaffold)]
Human PBMCs [1]
  Extracellular staining, median: 1.95
Human PBMCs [2]
  Intracellular staining, median: 1.16

## RRSRNLGKVIDTLTCBRLMGYIPLVGA [42b]
[3]; Patient A (HCV patient), listed as 310-42b
  IFN-g ELISPOT (T-cell spots): 90 and 115
[3]; Patient B (HCV patient), listed as 310-42b
  IFN-g ELISPOT (T-cell spots): 60 and 80
[3]; Patient D (HCV patient), listed as 310-42b
  IFN-g ELISPOT (T-cell spots): 13 and 11
DC-cells; BC 16
  Results on DC-cells (geomean peptide-fluorescence): 61968
DC-cells; BC43
  Results on DC-cells (geomean peptide-fluorescence): 19181

## RRIRNLGRVIETLTGBRLZGYIPLIGA [compound 42]
[3]; Patient A (HCV patient), listed as 310-42
  IFN-g ELISPOT (T-cell spots): 75 and 80
[3]; Patient D (HCV patient), listed as 310-42
  IFN-g ELISPOT (T-cell spots): 13 and 11
DC-cells; BC 16
  Results on DC-cells (geomean peptide-fluorescence): 74920
DC-cells; BC43
  Results on DC-cells (geomean peptide-fluorescence): 65811

## WGYIPLVGAPLGRRVARALAHGVRV [compound 19]
DC-cells; BC 16
  Results on DC-cells (geomean peptide-fluorescence): 8417
DC-cells; BC43
  Results on DC-cells (geomean peptide-fluorescence): 6372
Human PBMCs [1]
  Extracellular staining, median: 1.37
Human PBMCs [2]
  Intracellular staining, median: 17.41

## RGYLPAVGAPIGRRRVIRVIAHGLRLR [compound 7]
Human PBMCs [1]
  Extracellular staining, median: 29.42
Human PBMCs [2]
  Intracellular staining, median: 11.59

## GYIPLVGAPLGGVARALAHGVRV [compound 5]
Human PBMCs [1]
  Extracellular staining, median: 2.08
Human PBMCs [2]
  Intracellular staining, median: 1.84

## RRGYIPLVGAPLGRRRVARALAHGVRV [compound 9]
Human PBMCs [1]
  Extracellular staining, median: 2.06
Human PBMCs [2]
  Intracellular staining, median: 3.25

## RRSRNLGKVIDTLTCRRLMGYIPLVGA [compound 13]
Human PBMCs [1]
  Extracellular staining, median: 16.80
Human PBMCs [2]
  Intracellular staining, median: 21.43

## PVVHLTLRQAGDDFSR [N-biotin, reference compound]
DC-cells; BC 16
  Results on DC-cells (geomean peptide-fluorescence): 3591 and 2271
DC-cells; BC 16, listed as n-biotin
  Results on DC-cells (geomean peptide-fluorescence): 3745
DC-cells; BC43
  Results on DC-cells (geomean peptide-fluorescence): 3631
DC-cells; BC43, listed as n-biotin
  Results on DC-cells (geomean peptide-fluorescence): 1967
Human PBMCs [1]; [4]
  Extracellular staining, median: 1.00
Human PBMCs [2]
  Intracellular staining, median: 1.00

## GGGYIPLVGAPLGGGVARALAHGVRV [compound 11, HCV (Not scaffold)]
Human PBMCs [1]
  Extracellular staining, median: 2.62
Human PBMCs [2]
  Intracellular staining, median: 2.01

## RRGYIPLVGAPLGRRVARALAHGVRV [compound 8]
Human PBMCs [1]
  Extracellular staining, median: 3.06
Human PBMCs [2]
  Intracellular staining, median: 6.92

## RRIRNLGRVIETLTLZGYIPLIGARRIRNLGRVIETLTLZGYIPLIGAR [compound 20]
Human PBMCs [1]
  Extracellular staining, median: 126.5
Human PBMCs [2]
  Intracellular staining, median: 13.25

## RQIKIWFQNRRMKWKK [P-biotin, reference compound]
DC-cells; BC43
  Results on DC-cells (geomean peptide-fluorescence): 26212 and 33545
Human PBMCs [1]; [4]
  Extracellular staining, median: 9.15
Human PBMCs [2]
  Intracellular staining, median: 2.73

## RRGPVVHLTLRRRGQAGDDFS [compound 2, Neg control in scaffold, reference compound]
Human PBMCs [1]
  Extracellular staining, median: 1.77
Human PBMCs [2]
  Intracellular staining, median: 4.12

## Concanavalin A [ConA, reference compound]
[3]; Patient A (HCV patient)
  IFN-g ELISPOT (T-cell spots): 5090 and 5035
[3]; Patient B (HCV patient)
  IFN-g ELISPOT (T-cell spots): 2605 and 2725
[3]; Patient C (HCV patient)
  IFN-g ELISPOT (T-cell spots): 1355 and 700
[3]; Patient D (HCV patient)
  IFN-g ELISPOT (T-cell spots): 529 and 512

## RGYIPLVGAPLGRRRVARALAHGVRVR [compound 6]
Human PBMCs [1]
  Extracellular staining, median: 2.20
Human PBMCs [2]
  Intracellular staining, median: 5.35

## RRGGGQIVGGVYLLPRRGPRLGVRATR [compound 14]
Human PBMCs [1]
  Extracellular staining, median: 17.00
Human PBMCs [2]
  Intracellular staining, median: 4.81

## GQIIGGNYL
HLA-A1
  REVEAL binding score, HLA-type A1: 20.65%
HLA-A29
  REVEAL binding score, HLA-type A29: 14.17%
HLA-B15
  REVEAL binding score, HLA-type B15: 173.66%
HLA-B35
  REVEAL binding score, HLA-type B35: 2.60%
HLA-A2
  REVEAL binding score, HLA-type A2: 12.96%
HLA-B7
  REVEAL binding score, HLA-type B7: 2.39%
HLA-A3
  REVEAL binding score, HLA-type A3: 3.01%
HLA-B27
  REVEAL binding score, HLA-type B27: 0.64%
HLA-A11
  REVEAL binding score, HLA-type A11: 2.77%
HLA-B14
  REVEAL binding score, HLA-type B14: 0.22%
HLA-A24
  REVEAL binding score, HLA-type A24: 0.47%
HLA-B40
  REVEAL binding score, HLA-type B40: 31.55%
HLA-B8
  REVEAL binding score, HLA-type B8: 11.90%

## NYATGNLPG
HLA-A1
  REVEAL binding score, HLA-type A1: 11.16%
HLA-A29
  REVEAL binding score, HLA-type A29: 34.26%
HLA-B15
  REVEAL binding score, HLA-type B15: 6.06%
HLA-B35
  REVEAL binding score, HLA-type B35: 6.44%
HLA-A2
  REVEAL binding score, HLA-type A2: 3.94%
HLA-B7
  REVEAL binding score, HLA-type B7: 0.51%
HLA-A3
  REVEAL binding score, HLA-type A3: 8.65%
HLA-B27
  REVEAL binding score, HLA-type B27: 2.33%
HLA-A11
  REVEAL binding score, HLA-type A11: 4.69%
HLA-B14
  REVEAL binding score, HLA-type B14: 0.79%
HLA-A24
  REVEAL binding score, HLA-type A24: 1.13%
HLA-B40
  REVEAL binding score, HLA-type B40: 75.28%
HLA-B8
  REVEAL binding score, HLA-type B8: 9.96%
